In patent publication US7713994B2 (Wyeth LLC, priority 2005, dated 2010):
Like-named read-outs stand apart in the source and are kept apart here.

Assays:
cyclin D1/cdk 4 enzyme = biological target: T1, cyclin D1/cdk 4 enzyme (Homo sapiens, UniProt P11802); test: CDK4 ELISA kinase assay (phospho-Rb ser 795 detection); type: biochemical; details: In Vitro Enzyme Assays, 200 μM ATP, read-out: CDK4 IC50
T1 construct: made in house; host or cells: Sf9 insect cells, recombinant baculovirus
Procedure, shortened: (§1)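 Wells were coated overnight with GST-Rb C-terminal fragment, then blocked. Compound (10 ug/ml final) and cyclin/CDK enzyme from baculovirus-infected Sf9 cells with 200 μM ATP reacted 1 h at 30° C. Ser795 phosphorylation was detected by ELISA at 450 nm.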

BT474 = test: Cytotoxicity assay (SRB), BT474; type: cell-based
Procedure, shortened: (§2)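 Overnight-seeded monolayers (4000–12000 cells/well by line) receive compound in 5% FBS medium at 37 °C, 7% CO2. After 3 d, or 6 d for BT474, cellular protein is fixed with cold TCA, stained with SRB and read at 540 nm against untreated wells.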

cyclin E/CDK2 enzyme = biological target: T2, cyclin E/CDK2 enzyme (Homo sapiens, UniProt P24941); test: CDK2 ELISA kinase assay (phospho-Rb ser 795 detection); type: biochemical; details: In Vitro Enzyme Assays, read-out: CDK2 IC50
T2 construct: made in house; host or cells: Sf9 insect cells, recombinant baculovirus
Procedure, shortened: as §1

LoVo = test: Cytotoxicity assay (SRB), LoVo; type: cell-based; details: LoVo cells, SRB, read-out: In Vitro Cellular Activity IC50 LOVO
Procedure, shortened: as §2

MCF-7 = test: Cytotoxicity assay (SRB), MCF-7; type: cell-based; details: MCF-7 cells, SRB, read-out: In Vitro Cellular Activity IC50 MCF-7
Procedure, shortened: as §2

HCT-116 = test: Cytotoxicity assay (SRB), HCT-116; type: cell-based; details: HCT116 cells, SRB, read-out: In Vitro Cellular Activity IC50 HCT116
Procedure, shortened: as §2

cyclin B/CDK1 enzyme = biological target: T3, cyclin B/CDK1 enzyme (Homo sapiens, UniProt P06493); test: CDK1 ELISA kinase assay (phospho-Rb ser 795 detection); type: biochemical; details: In Vitro Enzyme Assays, read-out: CDK1 IC50
T3 construct: purchased New England BioLabs; host or cells: Sf9 insect cells, recombinant baculovirus
Procedure, shortened: as §1

[1] = Homo sapiens, BT-474, 144 h, BT474 cells, SRB, 6 days; read-out: In Vitro Cellular Activity IC50 BT474
[2] = Homo sapiens, LoVo, 72 h, three days
[3] = Homo sapiens, MCF7, 72 h, three days
[4] = Homo sapiens, HCT-116, 72 h, three days
[5] = Homo sapiens, BT-474, 144 h, BT474 cells, 6 days, SRB; read-out: In Vitro Cellular Activity IC50 BT474
[6] = Homo sapiens, LoVo, 72 h, 3 days
[7] = Homo sapiens, MCF7, 72 h, 3 days
[8] = Homo sapiens, HCT-116, 72 h, 3 days

T1 sequence (P11802 whole entry, species assumed): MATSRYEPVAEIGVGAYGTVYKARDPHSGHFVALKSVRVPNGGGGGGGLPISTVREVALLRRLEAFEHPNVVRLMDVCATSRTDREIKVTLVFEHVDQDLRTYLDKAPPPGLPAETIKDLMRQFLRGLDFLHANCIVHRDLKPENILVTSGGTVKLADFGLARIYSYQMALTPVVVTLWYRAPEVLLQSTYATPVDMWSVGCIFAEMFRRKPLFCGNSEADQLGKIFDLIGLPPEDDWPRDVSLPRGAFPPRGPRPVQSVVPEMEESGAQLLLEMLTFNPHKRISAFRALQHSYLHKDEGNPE
T1 sequence (P24385 whole entry partner, species assumed): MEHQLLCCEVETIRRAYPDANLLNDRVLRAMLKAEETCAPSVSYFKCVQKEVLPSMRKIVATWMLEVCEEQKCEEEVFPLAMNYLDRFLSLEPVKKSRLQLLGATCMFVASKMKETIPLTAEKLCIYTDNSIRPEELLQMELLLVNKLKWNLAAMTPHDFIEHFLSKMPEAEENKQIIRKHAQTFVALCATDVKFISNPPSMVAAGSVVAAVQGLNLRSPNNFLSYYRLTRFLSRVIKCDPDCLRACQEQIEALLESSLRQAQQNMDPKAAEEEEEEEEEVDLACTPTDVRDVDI
T3 sequence (P06493 whole entry): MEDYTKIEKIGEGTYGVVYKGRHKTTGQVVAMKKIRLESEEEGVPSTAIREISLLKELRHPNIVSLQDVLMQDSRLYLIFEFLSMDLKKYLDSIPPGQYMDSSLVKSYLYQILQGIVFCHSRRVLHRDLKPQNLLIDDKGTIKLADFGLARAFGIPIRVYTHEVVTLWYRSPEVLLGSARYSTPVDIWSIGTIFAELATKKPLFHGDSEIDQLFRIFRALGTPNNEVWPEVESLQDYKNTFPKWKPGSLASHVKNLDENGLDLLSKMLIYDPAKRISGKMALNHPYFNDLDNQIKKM
T3 sequence (P14635 whole entry partner): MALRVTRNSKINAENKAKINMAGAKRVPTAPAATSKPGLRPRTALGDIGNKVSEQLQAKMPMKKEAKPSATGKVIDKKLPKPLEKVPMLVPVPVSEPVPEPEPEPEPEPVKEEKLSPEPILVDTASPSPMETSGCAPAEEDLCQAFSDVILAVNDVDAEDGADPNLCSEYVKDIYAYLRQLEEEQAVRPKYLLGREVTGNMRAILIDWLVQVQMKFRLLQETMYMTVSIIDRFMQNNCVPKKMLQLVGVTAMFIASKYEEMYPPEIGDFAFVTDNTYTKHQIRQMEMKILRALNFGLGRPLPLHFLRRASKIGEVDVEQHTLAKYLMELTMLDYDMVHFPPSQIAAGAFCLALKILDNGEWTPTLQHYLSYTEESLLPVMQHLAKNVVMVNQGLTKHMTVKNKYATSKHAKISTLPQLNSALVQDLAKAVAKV

SMILES	IC50 (cyclin D1/cdk 4 enzyme) [µM]	IC50 (BT474; [1]) [µM]	IC50 (cyclin E/CDK2 enzyme) [µM]	IC50 (LoVo; [2]) [µM]	IC50 (MCF-7; [3]) [µM]	IC50 (HCT-116; [4]) [µM]	IC50 (cyclin B/CDK1 enzyme) [µM]	IC50 (BT474; BT474 cells, SRB, 6 days; read-out: In Vitro Cellular Activity IC50 BT474) [µM]	IC50 (LoVo; three days) [µM]	IC50 (MCF-7; three days) [µM]	IC50 (HCT-116; three days) [µM]	IC50 (BT474; [5]) [µM]	IC50 (LoVo; [6]) [µM]	IC50 (MCF-7; [7]) [µM]	IC50 (HCT-116; [8]) [µM]
CC(C)(O)[C@H]1CCCN1Cc1ccc(N/C=C2\C(=O)NC(=O)c3ccc(I)cc32)cc1 [Example 369, D-4-({4-[2-(1-Hydroxy-1-methyl-ethyl)-pyrrolidin-1-ylmethyl]-phenylamino}-methylene)-6-iodo-4H-isoquinoline-1,3-dione]	0.46	1.2	> 50	5	1.7	4.3	> 50								
COC(C)C1CCCN1Cc1ccc(N/C=C2\C(=O)NC(=O)c3ccc(I)cc32)cc1 (stereo not drawn) [Example 375, 6-Iodo-4-({4-[2-(1-methoxy-ethyl)-pyrrolidin-1-ylmethyl]-phenylamino}-methylene)-4H-isoquinoline-1,3-dione]	0.39	0.52	> 50	3.2	0.71	3.9	> 50								
O=C1NC(=O)c2ccc(I)cc2/C1=C/Nc1ccc(CN2CCC[C@H]2CO)cc1 [Example 376, L-4-{[4-(2-Hydroxymethyl-pyrrolidin-1-ylmethyl)-phenylamino]-methylene}-6-iodo-4H-isoquinoline-1,3-dione]	0.43	0.37	> 50	2.6	0.55	3.6	> 50								
O=C1NC(=O)c2ccc(I)cc2/C1=C/Nc1ccc(N2CCNCC2)cc1 [Example 378, (4Z)-6-Iodo-4-{[(4-piperazin-1-ylphenyl)amino]methylene}isoquinoline-1,3(2H,4H)-dione]	0.65	2.9	15.4	2.6	1.1	1.5	20.4								
CCCOc1ccc(CN/C=C2\C(=O)NC(=O)c3ccc(I)cc32)nc1Br [Example 379, (Z)-4-(((6-Bromo-5-propoxypyridin-2-yl)methylamino)methylene)-6-iodoisoquinoline-1,3(2H,4H)-dione]	0.69		> 50				> 50	1.4	2.6	14	2.1				
C/C=C/C(=O)Nc1ccc2c(c1)/C(=C/Nc1ccc(N3CCN(C)CC3)cc1)C(=O)NC2=O [Example 384, (2E)-N-[(4Z)-4-({[4-(4-Methylpiperazin-1-yl)phenyl]amino}methylene)-1,3-dioxo-1,2,3,4-tetrahydroisoquinolin-6-yl]but-2-enamide]	> 50	26	> 50	19	24	12	38.8								
C=CC(=O)Nc1ccc2c(c1)/C(=C/Nc1ccc(N3CCN(C)CC3)cc1)C(=O)NC2=O [Example 385, N-[(4Z)-4-({[4-(4-Methylpiperazin-1-yl)phenyl]amino}methylene)-1,3-dioxo-1,2,3,4-tetrahydroisoquinolin-6-yl]acrylamide]	14.7	0.39	20.7	3.5	1.6	1.4	11.5								
CC(C)N1CCN(c2ccc(N/C=C3\C(=O)NC(=O)c4ccc(I)cc43)cc2)CC1 [Example 386, (4Z)-6-Iodo-4-({[4-(4-isopropylpiperazin-1-yl)phenyl]amino}methylene)isoquinoline-1,3(2H,4H)-dione]	0.6	7	> 50	6.5	2.2	2.6	> 50								
CN1CCC(N2CCN(c3ccc(N/C=C4\C(=O)NC(=O)c5ccc(I)cc54)cc3)CC2)CC1 [Example 387, (4Z)-6-Iodo-4-[({4-[4-(1-methylpiperidin-4-yl)piperazin-1-yl]phenyl}amino)methylene]isoquinoline-1,3(2H,4H)-dione]	0.9	25	> 50	33	24	7.7	> 50								
CCCN1CCN(c2ccc(N/C=C3\C(=O)NC(=O)c4ccc(I)cc43)cc2)CC1 [Example 388, (4Z)-6-Iodo-4-({[4-(4-propylpiperazin-1-yl)phenyl]amino}methylene)isoquinoline-1,3(2H,4H)-dione]	2	3.9	> 50	5.5	3.1	2.7	> 50								
O=C1NC(=O)c2ccc(I)cc2/C1=C/Nc1ccc(N2CCN(Cc3ccco3)CC2)cc1 [Example 389, (4Z)-4-[({4-[4-(2-Furylmethyl)piperazin-1-yl]phenyl}amino)methylene]-6-iodoisoquinoline-1,3(2H,4H)-dione]	1.66	> 50	> 50	> 50	29	23	> 50								
O=C1NC(=O)c2ccc(I)cc2/C1=C/Nc1ccc(N2CCN(Cc3ccoc3)CC2)cc1 [Example 390, (4Z)-4-[({4-[4-(3-Furylmethyl)piperazin-1-yl]phenyl}amino)methylene]-6-iodoisoquinoline-1,3(2H,4H)-dione]	0.88		19.3				1.45					> 50	> 50	22	17
O=C1NC(=O)c2ccc(I)cc2/C1=C/Nc1ccc(N2CCN(CC3CC3)CC2)cc1 [Example 391, (4Z)-4-[({4-[4-(Cyclopropylmethyl)piperazin-1-yl]phenyl}amino)methylene]-6-iodoisoquinoline-1,3(2H,4H)-dione]	0.5		> 50				> 50					3	7.3	2.6	2.4
O=C1NC(=O)c2ccc(I)cc2/C1=C/Nc1ccc(N2CCN(C3CCC3)CC2)cc1 [Example 392, (4Z)-4-({[4-(4-Cyclobutylpiperazin-1-yl)phenyl]amino}methylene)-6-iodoisoquinoline-1,3(2H,4H)-dione]	0.69		33.2				> 50					3.8	4.8	4.2	2.5
CCN1CCN(c2ccc(N/C=C3\C(=O)NC(=O)c4ccc(I)cc43)cc2)CC1 [Example 393, (4Z)-4-({[4-(4-Ethylpiperazin-1-yl)phenyl]amino}methylene)-6-iodoisoquinoline-1,3(2H,4H)-dione]	0.47		> 50				> 50					5.9	6.8	2.7	2.8
CN1CCN(c2ccc(N/C=C3\C(=O)NC(=O)c4ccc(-c5ccsc5)cc43)cn2)CC1 [Example 396, (4Z)-4-({[6-(4-Methylpiperazin-1-yl)pyridin-3-yl]amino}methylene)-6-thien-3-ylisoquinoline-1,3(2H,4H)-dione]	0.02		> 50				> 50					2.8	3.1	3.8	1.4
COC1CCN(Cc2ccc(N/C=C3\C(=O)NC(=O)c4ccc(Br)cc43)cc2)CC1 [Example 397, (4Z)-6-Bromo-4-[({4-[(4-methoxypiperidin-1-yl)methyl]phenyl}amino)methylene]isoquinoline-1,3(2H,4H)-dione]	0.19		> 50				> 50					6.18	4.3	3.6	2.8
CC(CO)N1CCN(c2ccc(N/C=C3\C(=O)NC(=O)c4ccc(I)cc43)cc2)CC1 (stereo not drawn) [Example 398, (4Z)-4-[({4-[4-(2-Hydroxy-1-methylethyl)piperazin-1-yl]phenyl}amino)methylene]-6-iodoisoquinoline-1,3(2H,4H)-dione]	0.18		> 50				21.6					6.19	6.3	4.4	2.3
